Results as given in patent US9999621B2, “Medical use of artemisinin compounds and gephyrin agonists” (CeMM-Forschungszentrum für Molekulare Medizin GmbH, priority 2014, dated 2018).
Where two headings read alike, the source gives them in different places.

Columns and labels:
alphaTC1 cells = assay: Insulin expression in alpha cell line, immunofluorescence; format: cell-based, mouse; settings: for insulin expression in alpha cells: alphaTC1 cells, immunofluorescence
[1] = test system: Min6 cells overexpressing ARX; assay: High-throughput screen for functional repressors of ARX, insulin immunofluorescence; format: cell-based, mouse
Procedure: Mouse pancreatic cell lines αTC1 (provided by Novo Nordisk) and βTC3 (provided by Novo Nordisk) were grown in low-glucose DMEM supplemented by 10% FBS, 50 U/mL penicillin and 50 μg/mL streptomycin. Mouse pancreatic cell lines Min6 (provided by Novo Nordisk) with Doxycycline inducible construct was grown in high-glucose DMEM supplemented by 15% Tet System Approved FBS (Clonetech 631106), 71 uM 2-mercaptoethanol, 50 U/mL penicillin and 50 ug/mL streptomycin. The cell culture for human islets followed established protocols (Walpita et al., 2012).
Compounds (50 nL) were transferred to black optical suitable 384-well plate (Corning 3712) from DMSO stock plates using acoustic transfer (Labcyte Inc.). Min6 cells (3000 cells per well) were plated in 50 ul media on top of the compounds. Three days after treatment, cells were fixed in 3.7% formaldehyde for ten minutes at room temperature. Following PBS washing, cells were fixed with cold pure methanol at −20° C. for 10 minutes, permeabilized by 1% Triton X-100 in PBS for 30 minutes and blocked by 3% BSA in PBS for 30 minutes. Twenty microliters of primary anti-insulin antibody, diluted in 1:2000 in 1.5% BSA, was added per well and incubated in 4° C. overnight. […]
Images were taken by an automated microscope (Perkin Elmer Operetta) using a 20× objective. […] Images were analyzed by the Harmony (Perkin Elmer) software. […]

gephyrin [2] = target: T1, gephyrin (Mus musculus, UniProt Q8BUV3); assay: Gephyrin protein levels in alpha cells, Western blot and immunofluorescence; format: cell-based; design: endogenous in cells; host or cells: aTC1 mouse pancreatic alpha cell line; settings: alpha cell line
T1 sequence (Q8BUV3 1-769): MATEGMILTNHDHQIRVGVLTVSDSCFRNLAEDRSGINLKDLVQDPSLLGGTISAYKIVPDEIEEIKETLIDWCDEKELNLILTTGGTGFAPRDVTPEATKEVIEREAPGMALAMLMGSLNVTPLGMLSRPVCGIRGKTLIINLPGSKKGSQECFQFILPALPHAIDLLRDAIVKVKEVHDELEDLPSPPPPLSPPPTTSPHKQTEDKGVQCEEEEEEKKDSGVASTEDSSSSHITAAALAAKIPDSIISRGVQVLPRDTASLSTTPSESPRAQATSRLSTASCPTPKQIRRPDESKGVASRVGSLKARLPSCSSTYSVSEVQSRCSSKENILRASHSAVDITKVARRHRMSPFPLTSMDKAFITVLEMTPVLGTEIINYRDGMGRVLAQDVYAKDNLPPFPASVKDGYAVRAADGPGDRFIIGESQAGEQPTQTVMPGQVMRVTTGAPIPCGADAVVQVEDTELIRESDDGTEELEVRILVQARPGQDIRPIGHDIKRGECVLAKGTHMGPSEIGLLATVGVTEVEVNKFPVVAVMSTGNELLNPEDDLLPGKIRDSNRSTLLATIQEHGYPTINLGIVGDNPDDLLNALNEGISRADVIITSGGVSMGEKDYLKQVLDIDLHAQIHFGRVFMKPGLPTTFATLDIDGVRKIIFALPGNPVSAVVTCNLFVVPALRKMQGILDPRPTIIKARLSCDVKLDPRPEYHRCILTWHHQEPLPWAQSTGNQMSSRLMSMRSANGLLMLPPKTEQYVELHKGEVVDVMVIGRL
Procedure: Whole cell extracts were generated by lysing cells in NP-40 buffer containing 150 mM sodium chloride, 1.0% NP-40 and 50 mM Tris, pH 8.0 supplemented by Protease Inhibitor Cocktail (Roche). The whole-cell lysate (30 μg) was loaded onto a SDSpolyacrylamide gel for electrophoresis at 30 mA per gel, and then transferred by electrophoresis to a nitrocellulose membrane (GE Healthcare Life Science). All the blots were incubated with the corresponding primary antibodies diluted in 1:1000 in 5% milk at 4° C. overnight and with HRP-labeled secondary antibodies (diluted 1:20000) for 1 h. The signals were detected using ECL Prime Western blotting Detection Reagent (Amersham).

Btbd9 = target: T2, Btbd9 (Mus musculus, UniProt Q8C726); assay: Chemical proteomics pull-down with artesunate matrix, competition by free artemether; format: binding; settings: artesunate coupled to solid support, with and without competing free artemether
T2 construct: using 10 mg total cell lysate as protein input per replicate; endogenous in cells; host or cells: cell lysate
T2 sequence (Q8C726 1-612): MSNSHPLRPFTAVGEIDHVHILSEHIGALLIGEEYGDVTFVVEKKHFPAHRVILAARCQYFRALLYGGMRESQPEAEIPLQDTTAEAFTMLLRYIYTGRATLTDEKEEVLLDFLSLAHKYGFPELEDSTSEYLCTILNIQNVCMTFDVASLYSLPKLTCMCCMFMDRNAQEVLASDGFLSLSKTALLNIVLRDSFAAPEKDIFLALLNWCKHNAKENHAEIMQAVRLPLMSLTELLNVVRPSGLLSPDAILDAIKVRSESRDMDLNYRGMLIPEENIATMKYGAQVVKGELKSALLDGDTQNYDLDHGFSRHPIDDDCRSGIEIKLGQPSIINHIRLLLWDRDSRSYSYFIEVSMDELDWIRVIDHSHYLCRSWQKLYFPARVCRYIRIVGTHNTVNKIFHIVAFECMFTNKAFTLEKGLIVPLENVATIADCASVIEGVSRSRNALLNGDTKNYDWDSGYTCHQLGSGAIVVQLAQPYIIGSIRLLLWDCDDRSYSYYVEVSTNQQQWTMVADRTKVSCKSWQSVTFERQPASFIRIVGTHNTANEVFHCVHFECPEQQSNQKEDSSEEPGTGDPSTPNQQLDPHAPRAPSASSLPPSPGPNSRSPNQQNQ
Procedure: (§1) Drug-affinity matrices were prepared essentially as described previously (Huber et al, 2014). Briefly, ethylenediamine (2.7 μL, 40 μmol), ethanolamine (9.7 μL, 160 μmol), and triethylamine (15 μL, 108 μmol) were added to 500 μL NHS-activated Sepharose 4 Fast Flow beads (GE Healthcare Bio-Sciences AB, Uppsala, Sweden) and the reaction was put on a rotary shaker for 24 h. Beads were washed and resuspended in DMSO and NHS-activated artesunate (100 μL, 1.00 μmol) was added to the suspension, and the mixture was put on a rotary shaker for 24 h. Unreacted beads were blocked by addition of NHS-acetate (10 μmol) and triethylamine (25 μL, 180 μmol), followed by agitation on a rotary shaker for 24 h. After washing with DMSO and lysis buffer, beads were incubated with cell lysates.
(§2) Affinity chromatography and elution were performed in duplicate as reported previously (Huber et al, 2014), using 10 mg total cell lysate as protein input per replicate. […]
(§3) The initial peptide identifications were used to deduce independent linear transformations for precursor and fragment masses that would minimize the mean square deviation of measured masses from theoretical. […] A false discovery rate (FDR) of <1% for protein identifications and <0.1% for peptides (including the ones exported with lower scores) was determined by applying the same procedure against a database of reversed protein sequences. […]

gephyrin [3] = target: T1, gephyrin; assay: as above; format: binding; design: using 10 mg total cell lysate as protein input per replicate; endogenous in cells; host or cells: cell lysate; settings: artesunate coupled to solid support, with and without competing free artemether
Procedure: as §1, §2, §3

CUL3 = assay: as above; format: binding, mouse; settings: artesunate coupled to solid support, with and without competing free artemether
Procedure: as §1, §2, §3

aTC1 cells = assay: GABAR antagonists combined with artemether, insulin immunofluorescence; format: cell-based, mouse

COC1OC2OC3(C)CCC4C(C)CCC(C1C)C24O3 (centres unmarked) [Deoxyartemether]
insulin expression in alpha cells (alphaTC1 cells): no effects

CO[C@H]1O[C@@H]2O[C@@]3(C)CC[C@H]4[C@H](C)CC[C@@H]([C@H]1C)[C@@]24OO3 [artemether]
EC50 ([1]; Mus musculus, Min6 cells overexpressing ARX, dose response, immunofluorescence (FIG. 3c), read-out: half maximum effective concentration): < 1 µM
EC50 (alphaTC1 cells; Mus musculus, 72 h, alpha cells, inducing insulin expression, immunofluorescence (FIG. 3d), read-out: half maximum effective concentration): < 10 µM

C[C@@H]1CC[C@H]2[C@@H](C)C(=O)O[C@@H]3O[C@@]4(C)CC[C@@H]1[C@]32OO4 [artemisinin, (3R,5aS,6R,8aS,9R,12S,12aR)-octahydro-3,6,9-trimethyl-3,12-epoxy-12H-pyrano[4,3-j]-1,2-benzodioxepin-10(3H)-one]
gephyrin protein levels (gephyrin [2]): dose-dependent increase

C[C@H]1[C@H](OC(=O)CCC(=O)O)O[C@@H]2O[C@@]3(C)CC[C@H]4[C@H](C)CC[C@@H]1[C@@]24OO3 [artesunate]
enrichment in pull-down (Btbd9): strong enrichment
specific interactor identified by mass spectrometry (gephyrin [3]): top specific interactor
insulin levels in the presence of ARX (ARX overexpression phenotype) ([1]; Min6 cells induced to overexpress ARX, 72 hours, immunofluorescence): active
enrichment in pull-down (CUL3): strong enrichment
insulin expression in alpha cells (alphaTC1 cells): active

CCO[C@H]1O[C@@H]2O[C@@]3(C)CC[C@H]4[C@H](C)CC[C@@H]([C@H]1C)[C@@]24O3 [deoxyarteether]
insulin expression in alpha cells (alphaTC1 cells): inactive

COc1ccc(-c2ccc(=N)n(CCCC(=O)O)n2)cc1 [gabazine]
effect of GABAR antagonist on the effects of artemether (aTC1 cells): inhibited the effects of artemether
effect of GABAR antagonist on the effects of artemether (aTC1 cells; listed as Gabazine): inhibits the effects of Artemether

Cc1ccsc1C(=CCCN1CCC[C@@H](C(=O)O)C1)c1sccc1C [thiagabine]
insulin expression in alpha cells (alphaTC1 cells): increased the insulin expression
insulin expression in alpha cells (alphaTC1 cells; listed as Thiagabine): increases insulin production
